Test results as given in ChEMBL document CHEMBL1201862, “PubChem BioAssay data set” (2004).
The source made the active and inactive calls.

Experiments:
[1] = molecular target: Induced myeloid leukemia cell differentiation protein Mcl-1 (Homo sapiens, UniProt Q07820); type: functional
[2] = intracellular Trypanosoma cruzi inhibitors in host cells – cell-based, plate reader, cherry-pick samples, set 3, dose response (AID 651818); type: functional;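 note: compounds incubated with infected cells for about four days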
H9c2 = test: cells; type: functional, cell-based; conditions: Rattus norvegicus, H9c2, Myocardium;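 note: confirmatory concentration-response retest of ultra-high-throughput screening hits for modulation of myocardial damage; cell death induced by hydrogen peroxide oxidative stress; compound pretreatment for 60 min then peroxide exposure for 2 h; potency is for protecting the cells against peroxide damage rather than for killing them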
[3] = microbe, parasite or virus in culture; type: functional; conditions: Mycobacterium tuberculosis
[4] = molecular target: Heat shock protein HSP 90-alpha (Homo sapiens, UniProt P07900); type: functional, organism-based
[5] = molecular target: T1, Zinc finger protein mex-5 (Caenorhabditis elegans, UniProt Q9XUB2); test: MEX-5/TCR-2 RNA interaction inhibitors, dose response, biochemical, C. elegans, fluorescence polarization (AID 1960)
T1 sequence (Q9XUB2 whole entry): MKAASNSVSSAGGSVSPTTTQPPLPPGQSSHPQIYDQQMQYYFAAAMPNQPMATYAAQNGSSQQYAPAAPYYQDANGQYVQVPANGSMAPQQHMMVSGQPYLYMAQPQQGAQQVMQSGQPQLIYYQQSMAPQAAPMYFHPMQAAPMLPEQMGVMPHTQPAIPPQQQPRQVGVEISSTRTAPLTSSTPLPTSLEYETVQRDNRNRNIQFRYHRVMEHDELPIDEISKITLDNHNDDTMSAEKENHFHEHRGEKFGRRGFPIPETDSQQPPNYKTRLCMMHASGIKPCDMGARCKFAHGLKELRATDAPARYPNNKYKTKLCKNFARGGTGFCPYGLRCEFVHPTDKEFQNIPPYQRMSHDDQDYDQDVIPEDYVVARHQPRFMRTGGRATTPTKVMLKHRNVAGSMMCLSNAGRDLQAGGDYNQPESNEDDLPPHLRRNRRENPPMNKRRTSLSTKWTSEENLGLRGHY

[6] = molecular target: T2, RNA-binding protein pos-1 (Caenorhabditis elegans, UniProt G5EF15); test: inhibitors of POS-1/mex-3 RNA binding, dose response, biochemical, fluorescence polarization (AID 1964);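 note: purified POS-1 fused to maltose binding protein made in E. coli; potency of compounds blocking POS-1 binding to fluorescent RNA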
T2 sequence (G5EF15 whole entry): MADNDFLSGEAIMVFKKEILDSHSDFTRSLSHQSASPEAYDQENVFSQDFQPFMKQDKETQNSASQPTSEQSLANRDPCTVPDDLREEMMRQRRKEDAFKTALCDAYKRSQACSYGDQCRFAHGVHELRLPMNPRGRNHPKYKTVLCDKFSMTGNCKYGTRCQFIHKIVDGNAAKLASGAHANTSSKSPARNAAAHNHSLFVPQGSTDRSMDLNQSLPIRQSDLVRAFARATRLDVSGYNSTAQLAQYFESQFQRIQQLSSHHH

cells = type: functional
[7] = molecular target: T3, Replicative DNA helicase DnaB (Mycobacterium tuberculosis, UniProt P9WMR3); test: DnaB intein splicing inhibitors, dose response, biochemical, cell-free fluorescence (AID 449749); type: functional
T3 sequence (P9WMR3 whole entry): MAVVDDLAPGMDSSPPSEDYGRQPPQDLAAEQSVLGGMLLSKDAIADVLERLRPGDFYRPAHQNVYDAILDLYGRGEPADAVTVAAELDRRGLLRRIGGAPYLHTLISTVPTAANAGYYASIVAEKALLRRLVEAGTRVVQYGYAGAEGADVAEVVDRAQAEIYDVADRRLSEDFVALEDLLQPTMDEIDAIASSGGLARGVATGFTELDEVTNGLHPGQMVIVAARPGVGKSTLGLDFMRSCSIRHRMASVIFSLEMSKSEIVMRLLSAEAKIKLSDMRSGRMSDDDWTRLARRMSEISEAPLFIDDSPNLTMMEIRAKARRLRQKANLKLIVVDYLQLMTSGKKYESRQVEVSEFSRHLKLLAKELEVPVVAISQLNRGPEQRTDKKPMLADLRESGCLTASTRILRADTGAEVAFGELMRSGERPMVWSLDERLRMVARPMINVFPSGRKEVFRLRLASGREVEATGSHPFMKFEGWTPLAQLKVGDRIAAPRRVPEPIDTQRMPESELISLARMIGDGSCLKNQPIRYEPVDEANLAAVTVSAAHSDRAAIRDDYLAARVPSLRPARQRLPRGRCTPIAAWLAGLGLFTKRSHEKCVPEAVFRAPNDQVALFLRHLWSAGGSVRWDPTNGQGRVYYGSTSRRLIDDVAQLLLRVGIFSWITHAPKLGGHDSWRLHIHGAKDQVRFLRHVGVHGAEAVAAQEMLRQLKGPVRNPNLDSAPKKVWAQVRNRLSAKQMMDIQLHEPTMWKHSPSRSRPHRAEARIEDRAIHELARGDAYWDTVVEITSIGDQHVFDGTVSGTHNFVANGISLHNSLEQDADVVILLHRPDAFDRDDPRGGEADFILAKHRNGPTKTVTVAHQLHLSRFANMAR

Protein RecA = molecular target: T4, Protein RecA (Mycobacterium tuberculosis, UniProt P9WHJ3); test: Fluorescence Cell-Free Homogeneous Dose Retest to Identify Inhibitors of RecA-Intein Splicing Activity. [Related pubchem assays (depositor defined):AID2097, AID2223, AID489010, AID492950]; type: functional
T4 sequence (P9WHJ3 whole entry): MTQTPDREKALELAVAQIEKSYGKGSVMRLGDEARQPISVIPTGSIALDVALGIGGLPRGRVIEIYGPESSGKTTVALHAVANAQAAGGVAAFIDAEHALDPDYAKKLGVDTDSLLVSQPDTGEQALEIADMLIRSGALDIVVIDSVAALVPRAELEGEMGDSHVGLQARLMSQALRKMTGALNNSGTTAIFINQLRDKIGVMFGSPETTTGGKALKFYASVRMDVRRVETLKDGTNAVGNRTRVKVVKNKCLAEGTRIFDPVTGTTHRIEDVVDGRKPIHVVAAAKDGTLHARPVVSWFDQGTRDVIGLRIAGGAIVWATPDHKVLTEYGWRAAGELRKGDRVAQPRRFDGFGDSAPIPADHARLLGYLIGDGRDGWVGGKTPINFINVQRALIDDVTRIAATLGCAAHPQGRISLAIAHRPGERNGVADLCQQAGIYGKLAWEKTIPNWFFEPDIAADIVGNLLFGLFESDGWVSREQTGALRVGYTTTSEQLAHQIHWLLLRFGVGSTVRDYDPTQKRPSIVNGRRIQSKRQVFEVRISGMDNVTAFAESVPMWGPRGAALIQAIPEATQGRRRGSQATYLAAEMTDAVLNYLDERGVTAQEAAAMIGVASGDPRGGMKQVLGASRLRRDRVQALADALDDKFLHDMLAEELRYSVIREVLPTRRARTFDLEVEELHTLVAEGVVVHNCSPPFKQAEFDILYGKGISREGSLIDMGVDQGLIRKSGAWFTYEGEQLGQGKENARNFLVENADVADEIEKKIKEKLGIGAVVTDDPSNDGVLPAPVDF

Genome polyprotein = Genome polyprotein (dengue virus type 2, UniProt P29990); test: Dengue-2 NS5 methyltransferase inhibitors, primary screen, biochemical, confirmation dose response (AID 588689); type: functional
Genome polyprotein, sequence (P29990 2492-3391 limits assumed): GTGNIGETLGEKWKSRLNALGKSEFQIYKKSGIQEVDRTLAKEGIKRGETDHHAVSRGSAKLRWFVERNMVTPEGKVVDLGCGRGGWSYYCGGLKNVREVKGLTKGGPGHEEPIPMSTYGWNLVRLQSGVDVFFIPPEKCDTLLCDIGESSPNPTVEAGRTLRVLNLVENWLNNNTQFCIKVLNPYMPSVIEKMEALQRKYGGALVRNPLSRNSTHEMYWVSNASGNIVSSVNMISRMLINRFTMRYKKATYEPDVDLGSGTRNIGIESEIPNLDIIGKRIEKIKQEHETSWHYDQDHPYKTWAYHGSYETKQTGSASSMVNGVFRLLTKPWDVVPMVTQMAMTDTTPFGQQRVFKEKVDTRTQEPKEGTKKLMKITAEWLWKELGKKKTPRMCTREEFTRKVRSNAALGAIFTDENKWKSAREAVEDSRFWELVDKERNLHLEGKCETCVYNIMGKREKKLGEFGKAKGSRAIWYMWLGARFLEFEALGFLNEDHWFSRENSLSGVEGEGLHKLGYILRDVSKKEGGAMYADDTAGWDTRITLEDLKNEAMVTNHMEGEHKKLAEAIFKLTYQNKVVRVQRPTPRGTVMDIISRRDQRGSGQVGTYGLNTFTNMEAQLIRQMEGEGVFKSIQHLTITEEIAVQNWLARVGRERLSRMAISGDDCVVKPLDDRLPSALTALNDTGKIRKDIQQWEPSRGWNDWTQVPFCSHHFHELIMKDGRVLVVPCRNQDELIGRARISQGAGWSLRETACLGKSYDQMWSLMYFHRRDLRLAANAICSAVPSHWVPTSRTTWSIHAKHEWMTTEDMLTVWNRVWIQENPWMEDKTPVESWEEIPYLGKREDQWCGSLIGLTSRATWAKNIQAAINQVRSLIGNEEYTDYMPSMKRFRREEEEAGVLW

[8] = off-target signal loss in HeLa-CEM21 co-culture – HeLa F-luc CTL cells, cherry-picked, counter-screen for HIV-1 Env fusion inhibitor project, dose response (AID 652040); type: functional, cell-based;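 note: potency for signal decrease marking cytotoxic or nonspecific inhibition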
[9] = inhibitors of clade B AD8 Env fusion, dose response, cell-based, cherry-pick (AID 652062); type: functional;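 note: luciferase signal from cell-cell fusion driven by HIV-1 clade B AD8 Env; potency is for inhibitors of fusion seen as a drop in luminescence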
[10] = inhibitors of HIV Env-driven cell fusion, dose response, cherry-pick (AID 652057); type: functional, cell-based
[11] = ZM109 Env clade C HIV-1 fusion inhibitors, dose response, HeLa effector, CEM target cells, luciferase, cherry-pick (AID 652058); type: functional, cell-based
[12] = Luminescence Cell-Based Dose Retest to Confirm Inhibitors of Cancer Stem Cells. [Related pubchem assays (depositor defined):AID2717, AID2721]; type: functional; conditions: Homo sapiens

Induced myeloid leukemia cell differentiation protein Mcl-1, sequence (Q07820 whole entry): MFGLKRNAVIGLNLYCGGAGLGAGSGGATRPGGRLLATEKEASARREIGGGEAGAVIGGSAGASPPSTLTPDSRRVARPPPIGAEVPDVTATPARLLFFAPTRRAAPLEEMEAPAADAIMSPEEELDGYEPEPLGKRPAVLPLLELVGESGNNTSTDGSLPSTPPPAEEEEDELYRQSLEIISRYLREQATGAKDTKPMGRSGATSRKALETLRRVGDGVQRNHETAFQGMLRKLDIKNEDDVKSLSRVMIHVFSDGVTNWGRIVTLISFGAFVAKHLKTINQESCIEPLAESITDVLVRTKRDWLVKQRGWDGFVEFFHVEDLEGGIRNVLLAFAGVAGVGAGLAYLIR

Which IC50 [1] does the source give for `COc1ccccc1N1C(=O)C2ON(c3ccccc3)C(c3ccc(N(C)C)cc3)C2C1=O` (stereo not given) here?
Its IC50 is 9.03 µM (not active).

With `C[C@H](CO)N1C[C@H](C)[C@H](CN(C)Cc2ccc(C(=O)Nc3ccccc3N)cc2)Oc2ccc(NC(=O)Nc3ccc(C(F)(F)F)cc3)cc2CC1=O` as the molecule, how does the AC50 [2] read?
Its AC50 is 1.86 µM (active).

Which results are given for `COc1cc(-c2ccc3oc(-c4ccsc4)cc(=O)c3c2)cc(OC)c1OC`?
IC50 (H9c2): > 79 µM (inactive); CC50 [3]: 14.3 µM (active)

With `N=C(Cc1ccc(Cl)c(Cl)c1)NOC(=O)c1ccc(Br)o1` as the molecule, how does the AC50 [4] read?
The AC50 was 8.23 µM (active).

With `C1=CC2c3ccccc3NC(c3ccncc3)C2C1` (stereo not given) as the molecule, how does the IC50 [1] read?
The IC50 was 2.42 µM (active).

What about the EC50 [5] of the same molecule?
Its EC50 is 56.6 µM (inconclusive).

What about the EC50 [6] of the same molecule?
Its EC50 is > 300 µM (not active).

For `O=C1NC(=O)C(=Cc2ccc(Oc3ccc([N+](=O)[O-])cc3)cc2)C(=O)N1`, which IC50 (cells) is on record?
The IC50 was 43 µM (active).

What about the AC50 [7] of the same molecule?
Its AC50 is 29.5 µM (active).

And the EC50 (Protein RecA)?
Its EC50 is > 380 µM (inactive).

And the IC50 (Genome polyprotein)?
Its IC50 is 34.5 µM (active).

Which AC50 [8] does the source give for `CCN(C[C@H]1N[C@@](C)(C(=O)OC)[C@H]2C(=O)N(Cc3ccccc3)C(=O)[C@@H]12)C(=O)Nc1ccc(C)cc1` here?
The AC50 was 1.61 µM (active).

What about the AC50 [9] of the same molecule?
Its AC50 is 3.28 µM (active).

And the AC50 [10]?
The AC50 was 0.83 µM (active).

And the AC50 [11]?
The AC50 was 0.959 µM (active).

For `C[C@H]1CN([C@@H](C)CO)C(=O)Cc2cc(NS(=O)(=O)c3ccc(Cl)cc3)ccc2O[C@H]1CN(C)Cc1ccccc1`, which AC50 [2] is on record?
Its AC50 is 4.6 µM (active).

Which AC50 [12] does the source give for `CC(C)(C)c1nn(-c2ccccc2)c2nc(O)c(C=O)cc12` here?
Its AC50 is 6.32 µM (active).

What about the AC50 [4] of the same molecule?
Its AC50 is 1.68 µM (active).

For `CCc1ccc([C@H]2[C@@H]3C(=O)C[C@@H]4C(=O)N(Cc5ccccc5)C(=O)[C@@H]4[C@@H]3CN2S(=O)(=O)c2ccc(C)cc2)cc1`, which AC50 [8] is on record?
Its AC50 is 1.8 µM (active).

What about the AC50 [9] of the same molecule?
The AC50 was 11.3 µM (active).

What about the AC50 [10] of the same molecule?
Its AC50 is 1.17 µM (active).

What about the AC50 [11] of the same molecule?
Its AC50 is 1.48 µM (active).

Which AC50 [2] does the source give for `COc1cc(Br)cc(/C=N/NC(=O)c2ccccc2O)c1O` here?
The AC50 was 1.49 µM (active).

Which AC50 [8] does the source give for `CCOC(=O)c1c(CSc2ccccc2)oc2cc(Br)c(O)c(CN(C)C)c12` here?
Its AC50 is 1.38 µM (active).

What about the AC50 [9] of the same molecule?
The AC50 was 2.46 µM (active).

What about the AC50 [10] of the same molecule?
Its AC50 is 0.907 µM (active).

And the AC50 [11]?
Its AC50 is 1.58 µM (active).

Which CC50 [3] does the source give for `CN(C(=O)c1cccc(Nc2ccc(-c3ccc4c(c3)OCCO4)nn2)c1)C1CCCCC1` here?
Its CC50 is 28.4 µM (active).

For `CCC(C)(C)NC(=O)C(c1ccccc1F)N(Cc1ccco1)C(=O)c1csnn1` (stereo not given), which AC50 [8] is on record?
The AC50 was 7.86 µM (active).

And the AC50 [9]?
The AC50 was 36.2 µM (active).

And the AC50 [10]?
Its AC50 is 5 µM (active).

And the AC50 [11]?
The AC50 was 22.6 µM (active).

What does the source list for `CCOC(=O)[C@H]1[C@H]2COc3ccccc3[C@@H]2N2C(=O)c3c(C)cc(C)cc3NC(=O)[C@@]12C`?
AC50 [8]: 1.04 µM (active); AC50 [9]: 0.611 µM (active); AC50 [10]: 0.712 µM (active); AC50 [11]: 1.7 µM (active)

With `C[C@H]1CN([C@@H](C)CO)C(=O)c2cccc(NC(=O)c3ccc(-c4nccs4)cc3)c2O[C@@H]1CN(C)Cc1ccc(C(=O)Nc2ccccc2N)cc1` as the molecule, how does the AC50 [2] read?
Its AC50 is 2.92 µM (active).

For `C[C@H]1CN([C@@H](C)CO)C(=O)Cc2cc(NC(=O)Nc3cccc4ccccc34)ccc2O[C@@H]1CN(C)Cc1ccc(Oc2ccccc2)cc1`, which AC50 [2] is on record?
Its AC50 is 3.12 µM (active).

With `COc1ccc(N/C=C/C(=O)c2sc(-c3ccccc3)nc2C)cc1` as the molecule, how does the CC50 [3] read?
The CC50 was > 40 µM (active).

With `Cc1noc(C)c1S(=O)(=O)N(C)C[C@H]1Oc2c(NC(=O)c3ccc(-c4nccs4)cc3)cccc2C(=O)N([C@@H](C)CO)C[C@H]1C` as the molecule, how does the AC50 [2] read?
Its AC50 is 5.82 µM (active).

For `COCCCn1c(SCc2cccc(OC)c2)nc2cc(OC)c(OC)cc2c1=N`, which CC50 [3] is on record?
The CC50 was > 40 µM (active).

For `COc1ccc(S(=O)(=O)Nc2ccc3c(c2)CC(=O)N([C@H](C)CO)C[C@@H](C)[C@@H](CN(C)S(=O)(=O)c2ccc(OC)cc2)O3)cc1`, which AC50 [2] is on record?
Its AC50 is 3.98 µM (active).

For `CC(C(c1ccc2c(c1)OCO2)c1c(N)n(C)c(=O)n(C)c1=O)[N+](=O)[O-]` (stereo not given), which CC50 [3] is on record?
The CC50 was 36.3 µM (active).

For `C[C@H]1CN([C@@H](C)CO)C(=O)c2cccc(NC(=O)Nc3ccc(C(F)(F)F)cc3)c2O[C@H]1CN(C)Cc1ccc(C(F)(F)F)cc1`, which AC50 [2] is on record?
The AC50 was 3.22 µM (active).
